Measured values taken from PubChem BioAssay AID196 (DTP/NCI, 2004).
Where “and” joins values, the source holds several entries; their conditions need not be identical. Identical values can stand only once. Toxic doses and inconclusive results are not listed. Rule for the calls: active = survival T/C of 150% or more; inactive = T/C below 125% in these data. *1 amine or outer side, *2 acyl side, *3 side chain or, on linkers, in order; H or OH if unused. Where a SMILES comes first, the peptide text is derived from it. Bridges are numbered along the chain shown (N, C = ends). Roman numbers before positions name the chains, in order. [ ]: non-standard residue; d: D form. Actinocin(9to1) = Cc1c2oc3c(C)ccc(C(=O)[*:1])c3nc-2c(C(=O)[*:2])c(N)c1=O; aThr = C[C@H](O)[C@H](N)C(=O)O; NMeV = CN[C@H](C(=O)O)C(C)C; Sar = CNCC(=O)O

Tested on: BDF1 mice, intracerebral B16 melanoma, median survival T/C
Assay: NCI In Vivo Anticancer Drug Screen. Data for tumor model B16 Melanoma (intracerebral) in B6D2F1 (BDF1) mice
Conditions: endpoint: median survival time, higher = longer survival
Experimental: The antitumor activity of compounds was measured in mice bearing transplantable tumors. Survival or tumor size were measured and the results are expressed as the measurement made in the treated group (T) divided by the measurement made in the vehicle treated control group (C). The tumor model used in this assay is B16 Melanoma (intracerebral) in B6D2F1 (BDF1) mice

[1] = dose: 0.5 mg/kg/injection, schedule: Q01DX009 (ip), vehicle: saline
[2] = dose: 1.0 mg/kg/injection, schedule: Q01DX009 (ip), vehicle: saline
[3] = dose: 2.0 mg/kg/injection, schedule: Q01DX009 (ip), vehicle: saline
[4] = dose: 4.0 mg/kg/injection, schedule: Q01DX009 (ip), vehicle: saline
[5] = dose: 6.25 mg/kg/injection, schedule: Q01DX009 (ip), vehicle: other
[6] = dose: 12.5 mg/kg/injection, schedule: Q01DX009 (ip), vehicle: other
[7] = dose: 50.0 mg/kg/injection, schedule: Q01DX009 (ip), vehicle: other

Measured: T/C

O=C(O)CC(NC(=O)CP(=O)(O)O)C(=O)O (stereo unspecified)
inactive: dose: 32.0 mg/kg/injection, schedule: Q04DX003 (ip), vehicle: saline 101 % of control | dose: 64.0 mg/kg/injection, schedule: Q04DX003 (ip), vehicle: saline 96 % of control | dose: 128.0 mg/kg/injection, schedule: Q04DX003 (ip), vehicle: saline 90 % of control | dose: 256.0 mg/kg/injection, schedule: Q04DX003 (ip), vehicle: saline 101 % of control | dose: 512.0 mg/kg/injection, schedule: Q04DX003 (ip), vehicle: saline 104 % of control | dose: 1024.0 mg/kg/injection, schedule: Q04DX003 (ip), vehicle: saline 110 % of control

N[C@@H](Cc1ccc(N(CCCl)CCCl)cc1)C(=O)O
inactive: [1] 95 % of control | dose: 0.5 mg/kg/injection, schedule: Q01DX009 (ip), vehicle: water 100 % of control | [2] 100 % of control | dose: 1.0 mg/kg/injection, schedule: Q01DX009 (ip), vehicle: water 104 % of control | [3] 120 % of control | dose: 2.0 mg/kg/injection, schedule: Q01DX009 (ip), vehicle: water 116 % of control | [4] 87 % of control

N=C(N)SCc1c2ccccc2c(CSC(=N)N)c2ccccc12
inactive: dose: 2.5 mg/kg/injection, schedule: Q01DX005 (ip), vehicle: Klucel (hydroxypropylcellulose) (HPC) 107 % of control and 111 % of control | dose: 5.0 mg/kg/injection, schedule: Q01DX005 (ip), vehicle: Klucel (hydroxypropylcellulose) (HPC) 90 % of control and 92 % of control | dose: 10.0 mg/kg/injection, schedule: Q01DX005 (ip), vehicle: Klucel (hydroxypropylcellulose) (HPC) 97 % of control and 103 % of control | dose: 20.0 mg/kg/injection, schedule: Q01DX005 (ip), vehicle: Klucel (hydroxypropylcellulose) (HPC) 93 % of control and 96 % of control

CN(C)N=Nc1ccc(Cl)c2ncccc12
inactive: dose: 3.12 mg/kg/injection, schedule: Q01DX009 (ip), vehicle: other 108 % of control | [5] 97 % of control | [6] 100 % of control | [7] 94 % of control

F
inactive: dose: 16.0 mg/kg/injection, schedule: Q01DX005 (ip), vehicle: saline 102 % of control | dose: 32.0 mg/kg/injection, schedule: Q01DX005 (ip), vehicle: saline 100 % of control

COc1ccc2c(c1)CCC(c1ccccc1)=C2c1ccc(OCCN2CCCC2)cc1
inactive: dose: 3.0 mg/kg/injection, schedule: Q01DX005 (ip), vehicle: Klucel (hydroxypropylcellulose) (HPC) 97 % of control | dose: 6.0 mg/kg/injection, schedule: Q01DX005 (ip), vehicle: Klucel (hydroxypropylcellulose) (HPC) 97 % of control | dose: 12.0 mg/kg/injection, schedule: Q01DX005 (ip), vehicle: Klucel (hydroxypropylcellulose) (HPC) 95 % of control and 105 % of control | dose: 24.0 mg/kg/injection, schedule: Q01DX005 (ip), vehicle: Klucel (hydroxypropylcellulose) (HPC) 124 % of control and 96 % of control and 108 % of control | dose: 48.0 mg/kg/injection, schedule: Q01DX005 (ip), vehicle: Klucel (hydroxypropylcellulose) (HPC) 92 % of control and 112 % of control | dose: 96.0 mg/kg/injection, schedule: Q01DX005 (ip), vehicle: Klucel (hydroxypropylcellulose) (HPC) 100 % of control

CN(C)N=Nc1cccc2c1N(C)c1ccc(Cl)cc1S2
inactive: [5] 103 % of control | [6] 100 % of control | dose: 25.0 mg/kg/injection, schedule: Q01DX009 (ip), vehicle: other 108 % of control | [7] 101 % of control | dose: 100.0 mg/kg/injection, schedule: Q01DX009 (ip), vehicle: other 101 % of control

O=CC(NC(=O)N(CCF)N=O)C(O)C(O)C(O)CO (stereo unspecified)
inactive: dose: 26.7 mg/kg/injection, schedule: Q01DX001 (ip), vehicle: Klucel (hydroxypropylcellulose) (HPC) 107 % of control | dose: 40.0 mg/kg/injection, schedule: Q01DX001 (ip), vehicle: Klucel (hydroxypropylcellulose) (HPC) 109 % of control | dose: 60.0 mg/kg/injection, schedule: Q01DX001 (ip), vehicle: Klucel (hydroxypropylcellulose) (HPC) 118 % of control

CCC1=C(c2ccc(OC)cc2)CCC(C(=O)O)C1C (stereo unspecified)
inactive: dose: 4.0 mg/kg/injection, schedule: Q01DX005 (ip), vehicle: saline with Tween-80 95 % of control | dose: 4.0 mg/kg/injection, schedule: Q01DX005 (ip), vehicle: suspension in saline 103 % of control | dose: 8.0 mg/kg/injection, schedule: Q01DX005 (ip), vehicle: saline with Tween-80 91 % of control | dose: 8.0 mg/kg/injection, schedule: Q01DX005 (ip), vehicle: suspension in saline 95 % of control | dose: 16.0 mg/kg/injection, schedule: Q01DX005 (ip), vehicle: suspension in saline 87 % of control | dose: 32.0 mg/kg/injection, schedule: Q01DX005 (ip), vehicle: saline with Tween-80 105 % of control | dose: 32.0 mg/kg/injection, schedule: Q01DX005 (ip), vehicle: suspension in saline 95 % of control

Nc1n[nH]c(N)n1
inactive: dose: 128.0 mg/kg/injection, schedule: Q01DX005 (ip), vehicle: saline 95 % of control and 111 % of control | dose: 256.0 mg/kg/injection, schedule: Q01DX005 (ip), vehicle: saline 97 % of control and 106 % of control | dose: 512.0 mg/kg/injection, schedule: Q01DX005 (ip), vehicle: saline 116 % of control and 103 % of control | dose: 1024.0 mg/kg/injection, schedule: Q01DX005 (ip), vehicle: saline 118 % of control and 93 % of control

Cc1c2oc3c(C)ccc(C(=O)N[C@@H]4C(=O)N[C@H](C(C)C)C(=O)N5CCC[C@H]5C(=O)N(C)CC(=O)N(C)[C@@H](C(C)C)C(=O)O[C@H]4C)c3nc-2c(C(=O)N[C@@H]2C(=O)N[C@H](C(C)C)C(=O)N3CCC[C@H]3C(=O)N(C)CC(=O)N(C)[C@@H](C(C)C)C(=O)O[C@H]2C)c(N)c1=O (I: [aThr][dV]P[Sar][NMeV] / II: [aThr][dV]P[Sar][NMeV]; ester I:1-I:C, II:1-II:C; linker I:N-II:N via Actinocin(9to1))
inactive: dose: 0.02 mg/kg/injection, schedule: Q01DX009 (ip), vehicle: water 118 % of control | dose: 0.05 mg/kg/injection, schedule: Q01DX009 (ip), vehicle: water 109 % of control

COc1cccc2c1C(=O)c1c(O)c3c(c(O)c1C2=O)C[C@@](O)(/C(C)=N/NC(=O)c1ccccc1)C[C@@H]3OC1CC(N)C(O)C(C)O1 (stereo partly specified)
inactive: dose: 1.0 mg/kg/injection, schedule: Q01DX009 (ip), vehicle: saline with Tween-80 105 % of control | [2] 89 % of control | dose: 2.0 mg/kg/injection, schedule: Q01DX009 (ip), vehicle: saline with Tween-80 111 % of control | [3] 89 % of control and 95 % of control | dose: 4.0 mg/kg/injection, schedule: Q01DX009 (ip), vehicle: saline with Tween-80 109 % of control | [4] 93 % of control and 100 % of control | dose: 8.0 mg/kg/injection, schedule: Q01DX009 (ip), vehicle: saline 99 % of control

CN(C)CC(=O)c1ccc(O)c(O)c1
inactive: dose: 100.0 mg/kg/injection, schedule: Q01DX005 (ip), vehicle: saline 96 % of control | dose: 200.0 mg/kg/injection, schedule: Q01DX005 (ip), vehicle: saline 124 % of control and 97 % of control | dose: 400.0 mg/kg/injection, schedule: Q01DX005 (ip), vehicle: saline 119 % of control | dose: 800.0 mg/kg/injection, schedule: Q01DX005 (ip), vehicle: saline 90 % of control and 108 % of control

O=C1C=CN(C2OC(CO)C(O)C2O)C(=O)C1 (stereo unspecified)
inactive: dose: 12.5 mg/kg/injection, schedule: Q01DX009 (ip), vehicle: saline 90 % of control | dose: 25.0 mg/kg/injection, schedule: Q01DX009 (ip), vehicle: saline 97 % of control | dose: 50.0 mg/kg/injection, schedule: Q01DX009 (ip), vehicle: saline 97 % of control | dose: 100.0 mg/kg/injection, schedule: Q01DX009 (ip), vehicle: saline 100 % of control | dose: 200.0 mg/kg/injection, schedule: Q01DX009 (ip), vehicle: saline 111 % of control | dose: 400.0 mg/kg/injection, schedule: Q01DX009 (ip), vehicle: saline 107 % of control

NC(C/[N+]([O-])=N/O)C(=O)O (stereo unspecified)
inactive: dose: 3.5 mg/kg/injection, schedule: Q01DX009 (ip), vehicle: saline 97 % of control | dose: 7.0 mg/kg/injection, schedule: Q01DX009 (ip), vehicle: saline 87 % of control | dose: 12.5 mg/kg/injection, schedule: Q01DX009 (ip), vehicle: Klucel (hydroxypropylcellulose) (HPC) 107 % of control | dose: 14.0 mg/kg/injection, schedule: Q01DX009 (ip), vehicle: saline 89 % of control | dose: 25.0 mg/kg/injection, schedule: Q01DX009 (ip), vehicle: Klucel (hydroxypropylcellulose) (HPC) 100 % of control | dose: 56.25 mg/kg/injection, schedule: Q01DX009 (ip), vehicle: saline 101 % of control

O=C1c2c(O)ccc(O)c2C(=O)c2c(NCCNCCO)ccc(NCCNCCO)c21
inactive: [1] 90 % of control | [2] 96 % of control | [3] 102 % of control
